Molecules are shown by their SMILES. pIC50: −log10 of the molar value. Where a name gives a salt, the structure may show the parent alone. Read-outs that look alike come from different tables or passages of the source. Bounds are passed on as bounds.

The subject of assay [1] is L1210 (mouse lymphocytic leukemia). Put plainly: In vitro antiproliferation assay, L1210 cells. The assay is classed as cell-based. As to conditions: Mus musculus. The method, then:
(§1) Certain compounds were tested against other cell types for their ability to inhibit proliferation in standard antiproliferation assays.

Assay [2] concerns COLO 205 (colorectal adenocarcinoma). Put plainly: In vitro antiproliferation assay, COLO 205 cells. The assay is classed as cell-based. To be noted: Homo sapiens, COLO 205; Colo205. As for the experimental part:
as §1

The test system of assay [3] is K562 (bone marrow chronic myelogenous leukemia). Put plainly: In vitro antiproliferation assay, K562 cells. The class given is cell-based. As to conditions: Homo sapiens. The method, then: as §1
Assay [4] relates to TOV-21G (ovarian clear cell carcinoma). Put plainly: In vitro antiproliferation assay, TOV-21G cells. The class given is cell-based. To be noted: Homo sapiens, TOV21G; TOV-G21. As for the experimental part:
as §1

Assay [5] concerns the target T1, Aurora kinase-B (Homo sapiens, UniProt Q96GD4).
T1 construct: endogenous in cells; host or cells: A549 cells
Put plainly: Functional cellular assay of Aurora kinase-B: phosphorylation of histone H3 in A549 cells. The class given is cell-based. As to conditions: A549 cells, phospho-histone H3; read-out: IC50 of Aurora kinase-B inhibition. The method, then: Enantiomers E1 and E2 (Compounds 60a and 60b, respectively) were tested for their ability to inhibit Aurora kinase-B in a functional cellular assay involving phosphorylation of its substrate, histone H3. For the assay, A549 cells were seeded into the wells of a microtiter tray (5000 cells/well in 100 μl F12K media) late in the afternoon on Day 1. The cells were grown overnight (37° C., 5% CO2) On Day 2, 50 μl nocodazole (1 μM in media) was added to each well, giving a final concentration of 333 nM. Cells were grown for an additional 18 hrs under the same conditions.
On Day 3, 50 μl aliguots of varying concentrations of test compound were added to the wells Test compounds were prepared by 2-fold serial dilution of a […] stock (in DMSO). The diluted compounds in DMSO were then further diluted 1:50 with media to yield a final solution containing 4× test compound, 98% media, 2% DMSO. After incubation, the media/test compound was washed and the cells fixed with 2% paraformaldehyde (in Dulbecco's phosphate buffered saline “DPBS”; 25 μl per well; […] incubation). […] The cells were then stained with a secondary antibody labeled with a fluorescent dye (secondary antibody donkey anti-mouse AlexFluor 488 (Invitrogen Molecular Probes; 1:2000) and DAPI (1:15,000 of 1 mg/ml stock) for 1 hr at room temperature, washed three times with DPBS (200 μl/well) and stored under DPBS (100 μl/well) at 4° C. until ready for analysis.
A Zeiss Axiovert S100 inverted fluorescent microscope with a Plan-NEOFLUAR 10× objective, a Hamamatsu Lightningcure 200 Mercury-Xenon light source and an Omega Optical XF57 quad filter was used for all data collection. […] Images were captured and analyzed in 12-bit format using segmentation and morphological routines contained in the Image Pro software package. Identified nuclei were counted and pixel data for each cell along with experimental conditions was stored in a database using MySQL 4.0.14. […]
For phospho-histone H3 analysis the data is converted to Facs files and analysed using FlowJo. […]

In assay [6] the test system is H7299. Put plainly: In vitro antiproliferation assay, H7299 cells. The class given is cell-based. As for the experimental part:
as §1

In assay [7] the test system is SK-OV-3 (ovarian adenocarcinoma). Put plainly: In vitro antiproliferation assay, SK-OV-3 cells. The assay is classed as cell-based. To be noted: Homo sapiens, SKOV3. As for the experimental part:
as §1

Assay [8] deals with SW620 (colorectal adenocarcinoma). Put plainly: In vitro antiproliferation assay, SW620 cells. To be noted: Homo sapiens, SW-620. The assay is classed as cell-based. As for the experimental part:
as §1

In assay [9] the test system is MiaPaCa-2 (pancreatic carcinoma). Put plainly: In vitro antiproliferation assay, MiaPaCa-2 cells. The assay is classed as cell-based. To be noted: Homo sapiens, MIA PaCa-2; Miapaca2; read-out: In Vitro IC50. The method, then:
(§2) Cis racemic Compound 15, (1S,2R) enantiomeric Compound 15a and […] enantiomeric Compound 15b were also tested against DU145 (prostate carcinoma), HCT116 (colorectal carcinoma) and MiaPaCa-2 (pancreatic carcinoma) cell lines.
as §1

For assay [10], the system named is PC3 (prostate adenocarcinoma). Put plainly: In vitro antiproliferation assay, PC3 cells. To be noted: Homo sapiens, PC-3. The class given is cell-based. The method, then: as §1
Assay [11] relates to HELA (cervical adenocarcinoma). Put plainly: In vitro antiproliferation assay, HELA cells. The class given is cell-based. To be noted: Homo sapiens, HeLa. As for the experimental part:
as §1

In assay [12] the test system is MOLT4 (T lymphoblast acute lymphoblastic leukemia). Put plainly: In vitro antiproliferation assay, MOLT4 cells. The assay is classed as cell-based. As to conditions: Homo sapiens, MOLT-4. As for the experimental part:
as §1

In assay [13] the test system is CaOV-3 (ovarian adenocarcinoma). Put plainly: In vitro antiproliferation assay, CaOV-3 cells. The class given is cell-based. As to conditions: Homo sapiens. As for the experimental part:
as §1

For assay [14], the system named is BXPC-3 (pabcreatic adenocarcinoma). Put plainly: In vitro antiproliferation assay, BXPC-3 cells. To be noted: Homo sapiens. The assay is classed as cell-based. As for the experimental part:
as §1

For assay [15], the system named is A549 (lung carcinoma). Put plainly: In vitro antiproliferation assay, A549 cells (TABLE 1 6 point assay; TABLE 2). The assay is classed as cell-based. To be noted: Homo sapiens. As for the experimental part:
as §1

The test system of assay [16] is DU145 (prostate carcinoma). Put plainly: In vitro antiproliferation assay, DU145 cells. The assay is classed as cell-based. As to conditions: Homo sapiens, DU-145; DU145; read-out: In Vitro IC50. As for the experimental part: as §2, §1
The test system of assay [17] is U2OS (bone osteosarcoma). Put plainly: In vitro antiproliferation assay, U2OS cells. The class given is cell-based. To be noted: Homo sapiens, U2OS; U20S. As for the experimental part: as §1
Assay [18] deals with MOLT3 (T lymphoblast acute lymphoblastic leukemia). Put plainly: In vitro antiproliferation assay, MOLT3 cells. The class given is cell-based. As to conditions: Homo sapiens, MOLT-3. As for the experimental part:
as §1

Assay [19] has as its system HL160 (promyeloblast promyelocytic leukemia). Put plainly: In vitro antiproliferation assay, HL160 cells. The assay is classed as cell-based. As for the experimental part:
as §1

In assay [20] the test system is THP-1 (monocyte acute monocytic leukemia). Put plainly: In vitro antiproliferation assay, THP-1 cells. The assay is classed as cell-based. To be noted: Homo sapiens. The method, then: as §1
The subject of assay [21] is ASPC-1 (pancreatic adenocarcinoma). Put plainly: In vitro antiproliferation assay, ASPC-1 cells. The assay is classed as cell-based. As to conditions: Homo sapiens, ASPC1. The method, then: as §1
In assay [22] the test system is H1299 (non-small cell lung carcinoma). Put plainly: In vitro antiproliferation assay, H1299 cells (TABLE 1 6 point assay; TABLE 2). The assay is classed as cell-based. To be noted: Homo sapiens. As for the experimental part:
as §1

Assay [23] deals with H1155 (non-small cell lung carcinoma). Put plainly: In vitro antiproliferation assay, H1155 cells. As to conditions: Homo sapiens, NCI-H1155. The class given is cell-based. As for the experimental part:
as §1

Assay [24] relates to U937 (histiocytic lymphoma). Put plainly: In vitro antiproliferation assay, U937 cells. The assay is classed as cell-based. To be noted: Homo sapiens, U-937. As for the experimental part: as §1
Assay [25] relates to SU86.86 (pancreatic carcinoma). Put plainly: In vitro antiproliferation assay, SU86.86 cells. The class given is cell-based. To be noted: Homo sapiens, SU.86.86. As for the experimental part: as §1
Assay [26] has as its system Colo205 tumors. Put plainly: Xenograft treatment model, Colo205 tumors. To be noted: daily and pulsed dosing regimens, all dosage levels tested. The assay is classed as in vivo, SCID mice.
Protocol: (§3) When palpable tumors appeared and were of a preselected volume (approx. 100 mm3 for treatment model; >300 mm3 for regression model), the mice were administered test compounds in the amounts and according to the dosing regimens specified in TABLE 3 (treatment protocol) and TABLE 4 (regression protocol), below.
In assay [27] the test system is Colo205 tumors. Put plainly: Xenograft regression model, Colo205 tumors. As to conditions: 10 mg/kg/day oral. The class given is in vivo, SCID mice.
Protocol: as §3
For assay [28], the system named is H460 (large cell lung carcinoma). Put plainly: In vitro antiproliferation assay, H460 cells. The assay is classed as cell-based. As to conditions: Homo sapiens, NCI-H460. The method, then:
as §1

Assay [29] relates to A549 tumors. Put plainly: Xenograft treatment model, A549 tumors. The assay is classed as in vivo, SCID mice. To be noted: 5 days on/2 days off, 10 mg/kg qd, p>0.05.
Protocol: as §3
The test system of assay [30] is MiaPaCa tumors. Put plainly: Xenograft regression model, MiaPaCa tumors. The class given is in vivo, SCID mice. As to conditions: 10 mg/kg/day oral or i.p., similar to taxol.
Protocol: as §3
[31] abbreviates: A549, 6 point assay, A549 cells, read-out: IC50, A549 cells.
Where [32] appears, read: A549, A549, read-out: In Vitro IC50.
Setting [33] is: NCI-H1299, 6 point assay, H1299 cells, read-out: IC50, H1299 cells.
[34] abbreviates: NCI-H1299, H1299, read-out: In Vitro IC50.

T1 sequence (Q96GD4 whole entry): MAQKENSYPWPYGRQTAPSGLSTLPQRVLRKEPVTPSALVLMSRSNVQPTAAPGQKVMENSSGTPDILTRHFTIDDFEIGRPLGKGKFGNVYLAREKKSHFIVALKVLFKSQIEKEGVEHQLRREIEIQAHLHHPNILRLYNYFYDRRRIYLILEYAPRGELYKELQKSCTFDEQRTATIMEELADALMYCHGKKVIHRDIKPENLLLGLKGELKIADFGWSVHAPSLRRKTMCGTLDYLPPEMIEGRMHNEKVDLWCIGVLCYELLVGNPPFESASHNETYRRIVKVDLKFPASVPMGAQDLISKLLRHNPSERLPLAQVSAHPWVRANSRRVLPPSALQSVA

For the compound `Cc1cc(Nc2ncc(F)c(N[C@H]3[C@@H](C(N)=O)[C@@H]4C=C[C@H]3C4)n2)ccc1N1CCN(C)CC1` (single isomer, unassigned) [Compound 60a], the pIC50 in assay [1] is not below 7.70; in assay [2], not below 8.00; in assay [3] it was not below 6.00; in assay [4], not below 8.00; in assay [5] it was approximately 8.15; in assay [6] it was not below 7.70. Further, the pIC50 was not below 7.70 in assay [7]; not below 7.70 in assay [8]; not below 8.00 in [9]; not below 8.00 in assay [10]; not below 8.00 in [11]; not below 8.00 in assay [12]. The negative-log IC50 (pIC50) in [13] was not below 8.00; in assay [14], not below 8.00; in [15] (setting [31]) it was not below 7.00; in assay [15] (setting [32]), not below 8.00; in assay [16], not below 7.70; in [17] it was not below 8.00. For the same compound, the pIC50 in assay [18] was not below 8.00; in [19] it was not below 8.00; in [20] it was not below 6.00; in assay [21] it was not below 8.00; in assay [22] (setting [33]), not below 7.00; in assay [22] (setting [34]), not below 8.00. The negative logarithm of the IC50 (pIC50) in [23] is not below 8.00; in assay [24] it was not below 8.00; in [25], not below 7.70.
On to `Cc1cc(Nc2ncc(F)c(N[C@H]3[C@@H](C(N)=O)[C@@H]4C=C[C@H]3C4)n2)ccc1N1CCN(C)CC1` [compound 234, (1R,2R,3S,4S)—N4-(3-Aminocarbonylbicyclo[2.2.1]hept-5-en-2-yl)-5-fluoro-N2-[3-methyl-4-(4-methylpiperazin-1-yl)phenyl]-2,4-pyrimidinediamine Hydrogen Chloride Salt], for which the pIC50 is not below 8.00 in assay [2]; not below 6.00 in assay [6]; not below 8.00 in assay [9]; not below 8.00 in assay [11]; not below 8.00 in assay [28]; not below 7.00 in [15] (setting [31]). Further, the negative-log IC50 (pIC50) was not below 8.00 in assay [15] (setting [32]), not below 6.00 in assay [16], 6.00 to 7.00 in assay [22] (setting [33]) and not below 6.00 in [22] (setting [34]). In addition, the “Reduction in tumor growth rate as compared to a vehicle control” value in [26] is recorded as “significant (p<0.050) reductions in tumor growth rate”. For the same compound, the “Reduction in tumor growth rate” value in assay [27] and in [30] was “Significant reductions in tumor growth rate” throughout. In addition, the “Reduction in mean tumor volume” value in assay [29] was approximately 40%.

These data come from patent US7868013B2, “Cycloalkyl substituted pyrimidinediamine compounds and their uses” (Rigel Pharmaceuticals, Inc., priority 2004, dated 2011).
